Experimental data from ChEMBL document CHEMBL5385846, “Discovery and development of palmatine analogues as anti-NASH agents by activating farnesoid X receptor (FXR)” (Eur J Med Chem, 2023).
Active and inactive are the calls of the source. The rule behind the calls is not given here.

Assays:
[1] = Half life in human liver microsomes at 1 micromol/L measured upto 60 mins in presence of NADPH by LC-MS/MS analysis; format: ADME, Microsome; conditions: dose 1 µmol/L
Mus musculus [2] = assay: Anti-inflammatory activity in CDAHFD induced C57BL/6N mouse liver injury model assessed as downregulation of IL-6 protein expression in liver at 200 mg/kg,po qd administration for 4 weeks by Western blotting analysis; format: functional, organism-based
Mus musculus [3] = assay: Anti-inflammatory activity in CDAHFD induced C57BL/6N mouse liver injury model assessed as downregulation of IL-1beta protein expression in liver at 200 mg/kg,po qd administration for 4 weeks by Western blotting analysis; format: functional, organism-based
Mus musculus [4] = assay: Antifibrotic activity in CDAHFD induced non-alcoholic steatohepatitis C57BL/6N mouse model assessed as downregulation of TIMP1 protein expression at 200 mg/kg,po qd administration for 4 weeks by Western blotting analysis; format: functional, organism-based
Mus musculus [5] = assay: Antifibrotic activity in CDAHFD induced non-alcoholic steatohepatitis C57BL/6N mouse model assessed as downregulation of MMP2 protein expression at 200 mg/kg,po qd administration for 4 weeks by Western blotting analysis; format: functional, organism-based
Mus musculus [6] = assay: Antifibrotic activity in CDAHFD induced non-alcoholic steatohepatitis C57BL/6N mouse model assessed as downregulation of MMP2 mRNA expression at 200 mg/kg,po qd administration for 4 weeks by qRT-PCR analysis; format: functional, organism-based
Mus musculus [7] = assay: Antifibrotic activity in CDAHFD induced non-alcoholic steatohepatitis C57BL/6N mouse model assessed as downregulation of COL1A1 mRNA expression at 200 mg/kg,po qd administration for 4 weeks by qRT-PCR analysis; format: functional, organism-based
Mus musculus [8] = assay: Hepatoprotective activity in CDAHFD induced C57BL/6N mouse liver injury model assessed as increase in glutathione peroxidase level at 200 mg/kg,po qd administration for 4 weeks; format: functional, organism-based
Mus musculus [9] = assay: Hepatoprotective activity in CDAHFD induced C57BL/6N mouse liver injury model assessed as reduction in fatty droplets at 200 mg/kg,po qd administration for 4 weeks by Oil red-O staining based microscopic analysis; format: functional, organism-based
Mus musculus [10] = assay: Hepatoprotective activity in CDAHFD induced C57BL/6N mouse liver injury model assessed as decrease in triglyceride level at 200 mg/kg,po qd administration for 4 weeks; format: functional, organism-based
Mus musculus [11] = assay: Hepatoprotective activity in CDAHFD induced C57BL/6N mouse liver injury model assessed as increase in HDL level at 200 mg/kg,po qd administration for 4 weeks; format: functional, organism-based
Mus musculus [12] = assay: Hepatoprotective activity in CDAHFD induced C57BL/6N mouse liver injury model assessed as decrease in LDH level at 200 mg/kg,po qd administration for 4 weeks; format: functional, organism-based
Mus musculus [13] = assay: Hepatoprotective activity in CDAHFD induced C57BL/6N mouse liver injury model assessed as decrease in ALT level at 200 mg/kg,po qd administration for 4 weeks; format: functional, organism-based
Mus musculus [14] = assay: Hepatoprotective activity in CDAHFD induced C57BL/6N mouse liver injury model assessed as decrease in AST level at 200 mg/kg,po qd administration for 4 weeks; format: functional, organism-based
[15] = Acute toxicity in Kunming mouse assessed as effect on blood urea nitrogen level at 250 to 1000 mg/kg,po administration; format: organism-based; conditions: in vivo, dose 250-1000 mg/kg
[16] = Acute toxicity in Kunming mouse assessed as effect on ALT level at 250 to 1000 mg/kg,po administration; format: organism-based; conditions: in vivo, dose 250-1000 mg/kg
LX-2 [17] = assay: Antifibrotic activity in TGF-beta1 induced human LX2 cells assessed as downregulation of alpha-SMA mRNA expression incubated for 24 hrs by qRT-PCR analysis; format: functional, cell-based
LX-2 [18] = assay: Antifibrotic activity in TGF-beta1 induced human LX2 cells assessed as downregulation of TGF-beta1 protein expression incubated for 24 hrs by western blotting analysis; format: functional, cell-based
LX-2 [19] = assay: Antifibrotic activity in TGF-beta1 induced human LX2 cells assessed as downregulation of COL1A1 protein expression incubated for 24 hrs by western blotting analysis; format: functional, cell-based
[20] = Metabolic stability in CD-1 mouse liver microsomes assessed as intrinsic clearance at 1 micromol/L measured upto 60 mins in presence of NADPH by LC-MS/MS analysis; format: ADME, Microsome; conditions: 1 h, 1 µM, dose 1 µmol/L
[21] = Metabolic stability in Sprague-Dawley rat liver microsomes assessed as intrinsic clearance at 1 micromol/L measured upto 60 mins in presence of NADPH by LC-MS/MS analysis; format: ADME, Microsome; conditions: 1 h, 1 µM, dose 1 µmol/L
[22] = Metabolic stability in human liver microsomes assessed as intrinsic clearance at 1 micromol/L measured upto 60 mins in presence of NADPH by LC-MS/MS analysis; format: ADME, Microsome; conditions: 1 h, 1 µM, dose 1 µmol/L
[23] = Metabolic stability in CD-1 mouse liver microsomes assessed as microsomal intrinsic clearance at 1 micromol/L measured upto 60 mins in presence of NADPH by LC-MS/MS analysis; format: ADME, Microsome; conditions: dose 1 µmol/L, read-out: CLH
[24] = Metabolic stability in human liver microsomes assessed as microsomal intrinsic clearance at 1 micromol/L measured upto 60 mins in presence of NADPH by LC-MS/MS analysis; format: ADME, Microsome; conditions: dose 1 µmol/L, read-out: CLH
[25] = Acute toxicity in Kunming mouse assessed as effect on AST level at 250 to 1000 mg/kg,po administration; format: organism-based; conditions: in vivo, dose 250-1000 mg/kg
[26] = target: Collagen alpha-1(I) chain (Homo sapiens) (UniProt P02452); assay: Inhibition of COL1A1 (unknown origin) expressed in human LX2 cells at 20 micromol/L incubated for 48 hrs by Bright-Glo luciferase assay relative to control; format: cell-based; conditions: dose 20.0 µmol/L
Sequence of Collagen alpha-1(I) chain (Homo sapiens) (P02452 whole entry): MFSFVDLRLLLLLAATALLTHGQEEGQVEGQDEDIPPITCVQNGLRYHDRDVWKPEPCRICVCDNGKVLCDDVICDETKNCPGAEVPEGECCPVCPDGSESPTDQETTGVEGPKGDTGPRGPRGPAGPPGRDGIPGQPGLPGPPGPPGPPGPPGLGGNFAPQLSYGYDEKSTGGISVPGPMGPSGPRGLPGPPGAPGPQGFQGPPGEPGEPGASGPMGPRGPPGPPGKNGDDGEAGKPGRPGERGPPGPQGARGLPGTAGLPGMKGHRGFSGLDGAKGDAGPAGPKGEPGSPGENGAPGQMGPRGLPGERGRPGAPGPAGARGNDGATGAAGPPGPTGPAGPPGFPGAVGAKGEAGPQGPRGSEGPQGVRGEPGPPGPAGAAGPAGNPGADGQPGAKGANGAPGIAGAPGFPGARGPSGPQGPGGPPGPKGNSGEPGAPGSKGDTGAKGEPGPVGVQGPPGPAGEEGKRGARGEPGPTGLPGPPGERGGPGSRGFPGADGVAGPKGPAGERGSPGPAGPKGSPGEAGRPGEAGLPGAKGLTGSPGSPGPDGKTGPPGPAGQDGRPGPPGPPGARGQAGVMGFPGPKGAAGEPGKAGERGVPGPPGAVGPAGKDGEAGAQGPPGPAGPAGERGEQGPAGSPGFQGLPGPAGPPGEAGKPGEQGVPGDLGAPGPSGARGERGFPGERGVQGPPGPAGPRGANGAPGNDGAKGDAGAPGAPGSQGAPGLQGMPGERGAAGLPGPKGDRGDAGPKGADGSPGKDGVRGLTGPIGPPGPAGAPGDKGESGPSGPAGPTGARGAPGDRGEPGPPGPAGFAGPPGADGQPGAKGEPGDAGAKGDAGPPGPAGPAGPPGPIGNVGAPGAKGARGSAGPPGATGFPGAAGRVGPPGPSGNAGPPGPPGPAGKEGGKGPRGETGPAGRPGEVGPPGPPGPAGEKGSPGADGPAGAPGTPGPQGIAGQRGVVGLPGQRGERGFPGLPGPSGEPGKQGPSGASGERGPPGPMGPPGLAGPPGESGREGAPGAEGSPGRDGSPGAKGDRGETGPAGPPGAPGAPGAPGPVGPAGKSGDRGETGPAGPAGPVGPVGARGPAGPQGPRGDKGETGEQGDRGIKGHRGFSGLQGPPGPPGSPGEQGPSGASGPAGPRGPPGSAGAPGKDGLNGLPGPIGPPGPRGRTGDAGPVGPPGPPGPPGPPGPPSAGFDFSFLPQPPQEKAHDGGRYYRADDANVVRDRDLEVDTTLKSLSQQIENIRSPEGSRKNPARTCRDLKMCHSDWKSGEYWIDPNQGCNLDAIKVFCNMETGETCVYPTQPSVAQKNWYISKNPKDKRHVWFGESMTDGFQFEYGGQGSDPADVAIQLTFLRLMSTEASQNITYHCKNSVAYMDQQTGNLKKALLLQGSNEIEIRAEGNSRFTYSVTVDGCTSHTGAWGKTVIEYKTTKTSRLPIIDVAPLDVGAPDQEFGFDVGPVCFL

THP-1 [27] = assay: Anti-inflammatory activity in PMA differentiated human THP-1 cells assessed as downregulation of IL-1beta protein expression at 5 micromol/L incubated for 4 hrs followed by LPS and Nigericin addition for 3.5 hrs by Western blotting analysis; format: functional, cell-based; conditions: dose 5.0 µmol/L, time 7.5 hrs
THP-1 [28] = assay: Anti-inflammatory activity in PMA differentiated human THP-1 cells assessed as downregulation of IL-1beta protein expression at 10 micromol/L incubated for 4 hrs followed by LPS and Nigericin addition for 3.5 hrs by Western blotting analysis; format: functional, cell-based; conditions: dose 10.0 µmol/L, time 7.5 hrs
THP-1 [29] = assay: Anti-inflammatory activity in PMA differentiated human THP-1 cells assessed as downregulation of caspase-1 protein expression at 5 micromol/L incubated for 4 hrs followed by LPS and Nigericin addition for 3.5 hrs by Western blotting analysis; format: functional, cell-based; conditions: dose 5.0 µmol/L, time 7.5 hrs
Rattus norvegicus [30] = assay: Hepatoprotective activity in bile duct ligation induced Sprague-Dawley rat liver injury model assessed as decrease in AST level at 200 mg/kg,po qd administration for 14 days; format: functional, organism-based; conditions: time 14.0 day
Rattus norvegicus [31] = assay: Hepatoprotective activity in bile duct ligation induced Sprague-Dawley rat liver injury model assessed as decrease in total bilirubin level at 200 mg/kg,po qd administration for 14 days; format: functional, organism-based; conditions: time 14.0 day
Rattus norvegicus [32] = assay: Antifibrotic activity in bile duct ligation induced Sprague-Dawley rat liver fibrosis model assessed as downregulation of TGF-beta1 mRNA expression at 200 mg/kg,po qd administration for 14 days by qRT-PCR analysis; format: functional, organism-based; conditions: time 14.0 day
Rattus norvegicus [33] = assay: Antifibrotic activity in bile duct ligation induced Sprague-Dawley rat liver fibrosis model assessed as downregulation of TIMP1 mRNA expression at 200 mg/kg,po qd administration for 14 days by qRT-PCR analysis; format: functional, organism-based; conditions: time 14.0 day

With `COc1cc2c(cc1OC)-c1cc3ccc(OC)c(OCc4cccc(C)c4)c3c[n+]1CC2.[Br-]` the half-life at 1 µM [1] was 53.3 min, the Activity (Mus musculus [2]) was “Active” and the Activity (Mus musculus [3]) was “Active”. For the same compound, the Activity (Mus musculus [4]) was “Active”, the Activity (Mus musculus [5]) was “Active” and the Activity (Mus musculus [6]) was “Active”. The Activity (Mus musculus [7]) was “Active”, the Activity (Mus musculus [8]) was “Active” and the Activity (Mus musculus [9]) was “Active”. For the same compound, the Activity (Mus musculus [10]) was “inactive”, the Activity (Mus musculus [11]) was “Active” and the Activity (Mus musculus [12]) was “Active”. For the same compound, the Activity (Mus musculus [13]) was “Active”, the Activity (Mus musculus [14]) was “Active” and the Activity [15] was “Non-Toxic”. For the same compound, the Activity [16] was “Non-Toxic”, the Activity (LX-2 [17]) was “Dose-Dependent Effect” and the Activity (LX-2 [18]) was “Dose-Dependent Effect”. The Activity (LX-2 [19]) was “Dose-Dependent Effect”, the CLint,scaled [20] was 744 mL/min/kg and the CLint,scaled [21] was 338 mL/min/kg. For the same compound, the CLint,scaled [22] was 23.4 mL/min/kg, the microsomal CLint at 1 µM [23] was 188 µL/min/mg and the microsomal CLint at 1 µM [24] was 26 µL/min/mg. For the same compound, the Activity [25] was “Non-Toxic”, the inhibition [26] was 72.4% and the Activity (THP-1 [27]) was “Active”. For the same compound, the Activity (THP-1 [28]) was “Active”, the Activity (THP-1 [29]) was “Active” and the Activity (Rattus norvegicus [30]) was “Active”. For the same compound, the Activity (Rattus norvegicus [31]) was “Active”, the Activity (Rattus norvegicus [32]) was “Active” and the Activity (Rattus norvegicus [33]) was “Active”.
